According to ChEMBL document CHEMBL3885881, “DrugMatrix”:

Species: Rattus norvegicus
Assay: DrugMatrix - Regimen: Daily Repeat
Assay type: toxicity, organism-based, Sprague-Dawley
Parameters: regimen Daily Repeat, gender Male, age 6-8 weeks
Conditions: in vivo, po, route oral GAVAGE, vehicle .5 % CMC; for ABSOLUTE BASOPHIL / ABSOLUTE EOSINOPHIL / ABSOLUTE LYMPHOCYTE / ABSOLUTE MONOCYTE / ABSOLUTE SEGMENTED NEUTROPHIL / BASOPHIL / EOSINOPHIL / ERYTHROCYTE COUNT / HEMATOCRIT / HEMOGLOBIN / LEUKOCYTE COUNT / LYMPHOCYTE / MEAN CORPUSCULAR HEMOGLOBIN / MEAN CORPUSCULAR HEMOGLOBIN CONCENTRATION / MEAN CORPUSCULAR VOLUME / MONOCYTE / NEUTROPHIL / NUCLEATED RED BLOOD CELLS / PLATELET COUNT: tissue Blood; for ALANINE AMINOTRANSFERASE / ALBUMIN / ALKALINE PHOSPHATASE / ASPARTATE AMINOTRANSFERASE / BLOOD UREA NITROGEN / CARBON DIOXIDE / CHLORIDE / CHOLESTEROL / CREATINE PHOSPHOKINASE / CREATININE / GLUCOSE / LACTATE DEHYDROGENASE / LIPASE / PHOSPHORUS / POTASSIUM / SODIUM / TOTAL BILIRUBIN / TOTAL PROTEIN / URIC ACID: tissue Plasma
[1] = 0.0001 mg/kg, 72 h, dose level Low, time 3 day
[2] = 0.0001 mg/kg, 120 h, dose level Low, time 5 day
[3] = […], 72 h, dose 0.043 mg/Kg, dose level High, time 3 day
[4] = […], 120 h, dose 0.043 mg/Kg, dose level High, time 5 day

## C=C1/C(=C\C=C2/CCC[C@]3(C)[C@@H]([C@H](C)CCCC(C)C)CC[C@@H]23)C[C@@H](O)C[C@@H]1O [ALFACALCIDOL]
[1]
  ABSOLUTE BASOPHIL: 0 CELLS/uL
  ABSOLUTE EOSINOPHIL: 140 CELLS/uL
  ABSOLUTE LYMPHOCYTE: 12178.67 CELLS/uL
  ABSOLUTE MONOCYTE: 352 CELLS/uL
  ABSOLUTE SEGMENTED NEUTROPHIL: 1262.67 CELLS/uL
  BASOPHIL: 0%
  EOSINOPHIL: 1%
  ERYTHROCYTE COUNT: 6.05 x10E6/uL
  HEMATOCRIT: 38.07%
  HEMOGLOBIN: 14.23 G/DL
  LEUKOCYTE COUNT: 13.93 x10E3/uL
  LYMPHOCYTE: 87.33%
  MEAN CORPUSCULAR HEMOGLOBIN: 23.6 pg
  MEAN CORPUSCULAR HEMOGLOBIN CONCENTRATION: 37.4 G/DL
  MEAN CORPUSCULAR VOLUME: 63.03 fL
  MONOCYTE: 2.67%
  NEUTROPHIL: 9%
  NUCLEATED RED BLOOD CELLS: 0.33 /100WBC
  PLATELET COUNT: 1202.33 x10E3/uL
  ALANINE AMINOTRANSFERASE: 48.33 u/L
  ALBUMIN: 4.17 G/DL
  ALKALINE PHOSPHATASE: 299.33 u/L
  ASPARTATE AMINOTRANSFERASE: 81 u/L
  BLOOD UREA NITROGEN: 17 mg/dL
  CARBON DIOXIDE: 24.67 mmol/L
  CHLORIDE: 103.5 MEQ/L
  CHOLESTEROL: 65 mg/dL
  CREATINE PHOSPHOKINASE: 332 u/L
  CREATININE: 0.2 mg/dL
  GLUCOSE: 178.67 mg/dL
  LACTATE DEHYDROGENASE: 142.33 u/L
  LIPASE: 9.33 u/L
  PHOSPHORUS: 12.17 mg/dL
  POTASSIUM: 6.03 MEQ/L
  SODIUM: 146.55 MEQ/L
  TOTAL BILIRUBIN: 0.23 mg/dL
  TOTAL PROTEIN: 5.83 G/DL
  URIC ACID: 1.77 mg/dL
[2]
  ABSOLUTE BASOPHIL: 0 CELLS/uL
  ABSOLUTE EOSINOPHIL: 164 CELLS/uL
  ABSOLUTE LYMPHOCYTE: 10288.67 CELLS/uL
  ABSOLUTE MONOCYTE: 193 CELLS/uL
  ABSOLUTE SEGMENTED NEUTROPHIL: 1121 CELLS/uL
  BASOPHIL: 0%
  EOSINOPHIL: 1.33%
  ERYTHROCYTE COUNT: 5.95 x10E6/uL
  HEMATOCRIT: 36.97%
  HEMOGLOBIN: 13.63 G/DL
  LEUKOCYTE COUNT: 11.77 x10E3/uL
  LYMPHOCYTE: 87.33%
  MEAN CORPUSCULAR HEMOGLOBIN: 22.9 pg
  MEAN CORPUSCULAR HEMOGLOBIN CONCENTRATION: 36.9 G/DL
  MEAN CORPUSCULAR VOLUME: 62.07 fL
  MONOCYTE: 1.67%
  NEUTROPHIL: 9.67%
  NUCLEATED RED BLOOD CELLS: 0 /100WBC
  PLATELET COUNT: 1179 x10E3/uL
  ALANINE AMINOTRANSFERASE: 40.33 u/L
  ALBUMIN: 4.23 G/DL
  ALKALINE PHOSPHATASE: 369.33 u/L
  ASPARTATE AMINOTRANSFERASE: 94.33 u/L
  BLOOD UREA NITROGEN: 21 mg/dL
  CARBON DIOXIDE: 26.67 mmol/L
  CHLORIDE: 105 MEQ/L
  CHOLESTEROL: 57.33 mg/dL
  CREATINE PHOSPHOKINASE: 399 u/L
  CREATININE: 0.21 mg/dL
  GLUCOSE: 158.33 mg/dL
  LACTATE DEHYDROGENASE: 716.33 u/L
  LIPASE: 8.33 u/L
  PHOSPHORUS: 11.8 mg/dL
  POTASSIUM: 5.72 MEQ/L
  SODIUM: 145.1 MEQ/L
  TOTAL BILIRUBIN: 0.13 mg/dL
  TOTAL PROTEIN: 5.9 G/DL
  URIC ACID: 1.3 mg/dL
[3]
  ABSOLUTE BASOPHIL: 0 CELLS/uL
  ABSOLUTE EOSINOPHIL: 333 CELLS/uL
  ABSOLUTE LYMPHOCYTE: 10082 CELLS/uL
  ABSOLUTE MONOCYTE: 537.33 CELLS/uL
  ABSOLUTE SEGMENTED NEUTROPHIL: 2481 CELLS/uL
  BASOPHIL: 0%
  EOSINOPHIL: 2.33%
  ERYTHROCYTE COUNT: 6 x10E6/uL
  HEMATOCRIT: 36.53%
  HEMOGLOBIN: 13.9 G/DL
  LEUKOCYTE COUNT: 13.43 x10E3/uL
  LYMPHOCYTE: 74%
  MEAN CORPUSCULAR HEMOGLOBIN: 23.2 pg
  MEAN CORPUSCULAR HEMOGLOBIN CONCENTRATION: 38.07 G/DL
  MEAN CORPUSCULAR VOLUME: 60.97 fL
  MONOCYTE: 4%
  NEUTROPHIL: 19.67%
  NUCLEATED RED BLOOD CELLS: 0.33 /100WBC
  PLATELET COUNT: 1182 x10E3/uL
  ALANINE AMINOTRANSFERASE: 54.33 u/L
  ALBUMIN: 3.93 G/DL
  ALKALINE PHOSPHATASE: 234.67 u/L
  ASPARTATE AMINOTRANSFERASE: 99 u/L
  BLOOD UREA NITROGEN: 27.67 mg/dL
  CARBON DIOXIDE: 26.33 mmol/L
  CHLORIDE: 99.67 MEQ/L
  CHOLESTEROL: 75.33 mg/dL
  CREATINE PHOSPHOKINASE: 379.67 u/L
  CREATININE: 0.33 mg/dL
  GLUCOSE: 174.33 mg/dL
  LACTATE DEHYDROGENASE: 344 u/L
  LIPASE: 8.33 u/L
  PHOSPHORUS: 12.9 mg/dL
  POTASSIUM: 5.6 MEQ/L
  SODIUM: 142.27 MEQ/L
  TOTAL BILIRUBIN: 0.2 mg/dL
  TOTAL PROTEIN: 5.87 G/DL
  URIC ACID: 1.57 mg/dL
[4]
  ABSOLUTE BASOPHIL: 0 CELLS/uL
  ABSOLUTE EOSINOPHIL: 110 CELLS/uL
  ABSOLUTE LYMPHOCYTE: 15770.33 CELLS/uL
  ABSOLUTE MONOCYTE: 383.67 CELLS/uL
  ABSOLUTE SEGMENTED NEUTROPHIL: 2702.67 CELLS/uL
  BASOPHIL: 0%
  EOSINOPHIL: 1%
  ERYTHROCYTE COUNT: 6.37 x10E6/uL
  HEMATOCRIT: 38.77%
  HEMOGLOBIN: 14.5 G/DL
  LEUKOCYTE COUNT: 18.97 x10E3/uL
  LYMPHOCYTE: 83.33%
  MEAN CORPUSCULAR HEMOGLOBIN: 22.77 pg
  MEAN CORPUSCULAR HEMOGLOBIN CONCENTRATION: 37.43 G/DL
  MEAN CORPUSCULAR VOLUME: 60.83 fL
  MONOCYTE: 2%
  NEUTROPHIL: 13.67%
  NUCLEATED RED BLOOD CELLS: 0 /100WBC
  PLATELET COUNT: 1065.33 x10E3/uL
  ALANINE AMINOTRANSFERASE: 53.67 u/L
  ALBUMIN: 4.5 G/DL
  ALKALINE PHOSPHATASE: 245.67 u/L
  ASPARTATE AMINOTRANSFERASE: 109.33 u/L
  BLOOD UREA NITROGEN: 18 mg/dL
  CARBON DIOXIDE: 27 mmol/L
  CHLORIDE: 101.67 MEQ/L
  CHOLESTEROL: 74.33 mg/dL
  CREATINE PHOSPHOKINASE: 756 u/L
  CREATININE: 0.12 mg/dL
  GLUCOSE: 155.33 mg/dL
  LACTATE DEHYDROGENASE: 946.67 u/L
  LIPASE: 8.33 u/L
  PHOSPHORUS: 12.47 mg/dL
  POTASSIUM: 4.95 MEQ/L
  SODIUM: 144.83 MEQ/L
  TOTAL BILIRUBIN: 0.1 mg/dL
  TOTAL PROTEIN: 6.33 G/DL
  URIC ACID: 1.5 mg/dL
